# According to patent US20190322643A1 (Georgia State University Research Foundation, Inc., priority 2016, published 2019):
# Entries after “also recorded” stand apart in the source; their conditions may differ.
# Assays:
# HDAC = assay: Homogeneous cellular HDAC assay, statements in text without one cell line; settings: result in words
# Experimental: After 24 h, 9 μl inhibitors with different concentration were added to the HeLa cells and incubation was continued for 3 h under cell culture conditions. After this treatment period, 10 μl of a 2 mM stock solution of the substrate Boc-K(Ac)-AMC was added into the 96 well plates with Hela cells and inhibitors. […] A549 and K562 cell lines used the same method, respectively. IC50s were calculated using GraphPad Prizm statistical package with sigmoidal variable slope dose response curve fit.
# Boc-K(Ac)-AMC was used as a cell-permeable HDAC substrate, as after deacetylation it is cleaved by trypsin to release the florescent 7-amino-4-methylcoumarin (AMC).
# [1] = molecular target: T1, Mouse histone methyltransferase G9a (969-1263) (Mus musculus, UniProt Q9Z148); assay: MALDI-TOF methylation study of G9a inhibition; assay type: biochemical; settings: inhibitors at 5 μM concentration for 30 min
# T1 construct: The 6His-sumo mG9a (969-1263) protein was purified using the following procedure; 6His-sumo (cleaved yes); made in house; host or cells: Escherichia coli BL21 (DE3)
# T1 sequence (Q9Z148 969-1263): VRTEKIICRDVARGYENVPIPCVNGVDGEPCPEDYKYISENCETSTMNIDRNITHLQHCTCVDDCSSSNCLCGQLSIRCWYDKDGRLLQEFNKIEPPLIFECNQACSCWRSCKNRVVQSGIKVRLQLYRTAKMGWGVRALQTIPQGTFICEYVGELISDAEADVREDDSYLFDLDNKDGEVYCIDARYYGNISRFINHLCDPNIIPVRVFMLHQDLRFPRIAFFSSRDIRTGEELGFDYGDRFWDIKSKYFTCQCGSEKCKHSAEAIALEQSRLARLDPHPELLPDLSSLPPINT
# Experimental: Mouse histone methyltransferase G9a (969-1263) cDNA was amplified from the cDNA of BALB/c mouse thymus, and the fragment was sub-cloned into a vector with a 6His-sumo tag. […] The 6His-sumo mG9a (969-1263) protein was purified using the following procedure: harvested cell pellet was re-suspended in 20 mM Tris (pH 8.0), 500 mM NaCl, 0.1% β-mercaptoethanol, and 1 mM PMSF. Cells were lysed by sonicating for 15 seconds with 6 second intervals for a total time of 15 minutes on an ice bath. […] The 6His-sumo tag was cleaved from the column by adding Ubiquitin-like-specific protease 1 (ULP-1) at 4° C. for 12 hours. Wash buffer was then run through the Ni^+ column again and the elution buffer collected. Subsequently, advanced protein purification was done by HiTrap Q HP sequential Superdex 200 10/300 GL. Elute of every step was analyzed by SDS PAGE, stained by Coomassie brilliant blue (CBB). […] The reaction was incubated at room temperature for 30 min, and stopped by TFA. 1 μL of the sample was mixed with CHCA matrix and m/z peaks were obtained at reflection positive mode. The results of mass spectrum were analyzed using the Bruker flex analysis software and data processing was carried out as described below. MALDI-TOF based experiments were performed according to the protocol developed by Chang et al. (Nat. Struct. Mol. Biol. 2009, 16, 312-317). MALDI spectra were collected using Bruker flex control software and analyzed by flex analysis. After labelling each cluster peaks of H3K9Me0, H3K9Me1 and H3K9Me2 for all of the tested concentrations, area under the cluster (AUC) were extracted by using the same flex analysis software. % abundance of each peak was calculated by following formula: A=% Abundance of (H3K9Me0)=area of H3K9Me0/(area of H3K9Me0+area of H3K9Me1+area of H3K9Me2) B=% Abundance of (H3K9Me1)=area of H3K9Me1/(area of H3K9Me0+area of H3K9Me1+area of H3K9Me2) C=% Abundance of (H3K9Me2)=area of H3K9Me2/(area of H3K9Me0+area of H3K9Me1+area of H3K9Me2). This was repeated for each spectra (3 multiples for each samples). […] Finally % inhibition was found by subtracting % MA(i) from 100. […] A biochemical assay using MALDI-TOF was used to visualize the effects of the synthesized compounds on G9a enzymatic activity. […] Struct. Mol. Biol. 2009, 16, 312-317).
# HCT-8 = assay: Cytotoxicity / anti-proliferation assay (CCK-8), HCT-8; assay type: cell-based; settings: Homo sapiens, 72 h, CCK-8 kit
# Experimental: (§1) Then the cells were exposed to the different inhibitors with various concentrations for 72 h. […] EC50s were calculated using GraphPad Prizm statistical package with sigmoidal variable slope dose response curve fit.
# (§2) Cell anti-proliferation assays were performed to determine the toxicity of these inhibitors. […] These compounds were further evaluated against the control cell line HEK293 to test their toxicity with a non-cancerous cell line.
# G9a = molecular target: T2, G9a (Homo sapiens, UniProt Q96KQ7); assay: H3K9Me2 cell immunofluorescence in-cell Western (ICW) assay; assay type: cell-based; settings: MDA-MB-231 cell line, 48 h
# T2 construct: endogenous in cells; host or cells: MDA-MB-231
# T2 sequence (Q96KQ7 1-1210): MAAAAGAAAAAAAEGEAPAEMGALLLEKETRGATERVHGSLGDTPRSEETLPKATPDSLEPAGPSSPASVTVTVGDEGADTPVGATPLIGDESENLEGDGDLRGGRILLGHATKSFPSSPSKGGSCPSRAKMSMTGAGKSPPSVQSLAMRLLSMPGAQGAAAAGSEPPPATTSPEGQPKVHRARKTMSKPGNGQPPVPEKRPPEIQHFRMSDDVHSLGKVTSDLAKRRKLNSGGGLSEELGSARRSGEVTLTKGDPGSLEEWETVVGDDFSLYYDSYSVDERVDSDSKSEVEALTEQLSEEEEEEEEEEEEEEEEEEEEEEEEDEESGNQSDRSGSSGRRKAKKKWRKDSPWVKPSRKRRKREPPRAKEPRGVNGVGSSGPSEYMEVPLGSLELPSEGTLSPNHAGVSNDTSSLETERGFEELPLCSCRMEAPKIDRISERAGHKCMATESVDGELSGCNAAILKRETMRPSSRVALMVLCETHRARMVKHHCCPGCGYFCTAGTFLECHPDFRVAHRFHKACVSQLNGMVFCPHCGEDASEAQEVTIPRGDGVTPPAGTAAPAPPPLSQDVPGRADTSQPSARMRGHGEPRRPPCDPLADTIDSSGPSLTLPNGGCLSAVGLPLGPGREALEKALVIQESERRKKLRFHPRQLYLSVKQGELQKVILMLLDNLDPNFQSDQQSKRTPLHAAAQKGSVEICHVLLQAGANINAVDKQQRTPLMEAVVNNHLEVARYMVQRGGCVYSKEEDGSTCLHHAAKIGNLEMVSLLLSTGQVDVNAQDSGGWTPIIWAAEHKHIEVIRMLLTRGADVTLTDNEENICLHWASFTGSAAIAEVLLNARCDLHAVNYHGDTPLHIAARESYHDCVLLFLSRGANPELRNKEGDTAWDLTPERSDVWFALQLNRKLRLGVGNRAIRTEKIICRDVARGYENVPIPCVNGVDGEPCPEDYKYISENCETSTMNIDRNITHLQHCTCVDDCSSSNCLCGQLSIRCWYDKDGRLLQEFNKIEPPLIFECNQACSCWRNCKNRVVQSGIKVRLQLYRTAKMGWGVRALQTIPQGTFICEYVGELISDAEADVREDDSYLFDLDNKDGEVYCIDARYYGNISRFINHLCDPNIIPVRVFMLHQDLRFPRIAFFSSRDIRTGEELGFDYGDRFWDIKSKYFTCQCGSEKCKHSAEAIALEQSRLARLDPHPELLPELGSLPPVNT
# Experimental: After the incubation, the media was removed and 100 μl fixation and permeabilization solution (2% formaldehyde in PBS) for fixation was added for 30 min. And then use 200 μl 0.1% Triton X100 in PBS washing solution to wash (allow wash to shake on a plate shaker for 5 minutes). After five washes, cells were blocked for 1 h with 150 μl blocking buffer to each well (1% BSA in PBS) (allow blocking at RT with moderate shaking on a plate shaker). After 1 h, remove the blocking buffer from the blocking step and add primary antibody in blocking buffer to cover the bottom of each well. […] The plates were read on an Odyssey CLX (LiCor) scanner at both 800 nm (H3K9me2 signal) and 700 nm (cell tag 700 stain signal) channels. IC50s were calculated using GraphPad Prizm statistical package with sigmoidal variable slope dose response curve fit.
# HEK293 = assay: Toxicity assay (CCK-8) in control non-cancerous cell line; assay type: cell-based
# Experimental: A549, MDA-MB-231, HCT-8, MCF-7, and HEK293 cells were seeded at 8000-10000 cells (100 μl) in white 96-well plates and pre-incubate the plate for 24 h under standard cell culture conditions, respectively. Then the cells were exposed to the different inhibitors with various concentrations for 72 h. Finally, 10 μl of CCK-8 kit solution was added to each well and incubated for 3-4 hours under standard cell culture conditions, and the 96 well plates were measured the absorbance at 450 nm using Perkin-Elmer Wallac Victor ^3V 1420 multi label plate reader (Perkin-Elmer, Wellesley, USA). EC50s were calculated using GraphPad Prizm statistical package with sigmoidal variable slope dose response curve fit.
# as §2, with “inhibitors. Several cell lines (MDA-MB-231, MCF-7, A549 and HCT-8) were incubated and then treated with varying concentrations of the inhibitors for 72 h, respectively.” for “inhibitors.”
# A549 = assay: Cytotoxicity / anti-proliferation assay (CCK-8), A549; assay type: cell-based; settings: Homo sapiens, 72 h, CCK-8 kit
# Experimental: as §1, §2
Compound,HDAC inhibition activity (HDAC),inhibition at 5 µM [1] [%],EC50 (HCT-8) [µM],IC50 (G9a) [µM],toxicity in normal cell line (HEK293),EC50 (A549) [µM]
"COc1ccc2c(NC3CCN(Cc4ccccc4)CC3)nc(NCCNC(=O)CCCCCCC(=O)NO)nc2c1 [Compound 13, N1-(2-((4-((1-benzylpiperidin-4-yl)amino)-7-methoxyquinazolin-2-yl)amino)ethyl)-N8-hydroxyoctanediamide]",significant HDAC inhibition,62 ± 14.4,> 100,37.8 ± 2.8,lower toxicity,–
"COc1cc2nc(NCCNC(=O)CCCCCC(=O)NO)nc(NC3CCN(Cc4ccccc4)CC3)c2cc1OC [Compound 5b, N1-(2-((4-((1-benzylpiperidin-4-yl)amino)-6,7-dimethoxyquinazolin-2-yl)amino)ethyl)-N7-hydroxyheptanediamide]",much lower than that of 14,38 ± 4.99,> 100,87.4 ± 5.44,–,> 100
"COc1ccc2c(NC3CCN(Cc4ccccc4)CC3)nc(NCCNC(=O)CCCCCC(=O)NO)nc2c1 [Compound 14, N1-(2-((4-((1-benzylpiperidin-4-yl)amino)-7-methoxyquinazolin-2-yl)amino)ethyl)-N7-hydroxyheptanediamide]",significant HDAC inhibition,69.5 ± 3.43,73.1 ± 1.21,7.14 ± 1.62,lower toxicity; also recorded: less toxic compared to 13,–
